Experimental data as given in ChEMBL document CHEMBL5356940, “The rational design of ARUK2007145, a dual inhibitor of the α and γ isoforms of the lipid kinase phosphatidylinositol 5-phosphate 4-kinase (PI5P4K)” (RSC Med Chem, 2023).

Columns and labels:
[1] = biological target: Phosphatidylinositol 5-phosphate 4-kinase type-2 gamma (Homo sapiens, UniProt Q8TBX8)
Description: Inhibition of GST-fused human recombinant chimeric PI5P4Kgamma+ harboring PI5P4Kalpha-like mutations expressed in Escherichia coli BL21(DE3) incubated for 60 mins by ADP-Glo assay

[2] = Apparent permeability across apical to basolateral side in dog MDCK-MDR1 cells; type: ADME, cell-based, Canis lupus familiaris
[3] = biological target: T1, Phosphatidylinositol 5-phosphate 4-kinase type-2 beta (Homo sapiens, UniProt P78356); assay: Inhibition of GST-fused human recombinant PI5P4Kbeta expressed in Escherichia coli BL21(DE3) incubated for 60 mins by ADP-Glo assay
T1 sequence (P78356 whole entry): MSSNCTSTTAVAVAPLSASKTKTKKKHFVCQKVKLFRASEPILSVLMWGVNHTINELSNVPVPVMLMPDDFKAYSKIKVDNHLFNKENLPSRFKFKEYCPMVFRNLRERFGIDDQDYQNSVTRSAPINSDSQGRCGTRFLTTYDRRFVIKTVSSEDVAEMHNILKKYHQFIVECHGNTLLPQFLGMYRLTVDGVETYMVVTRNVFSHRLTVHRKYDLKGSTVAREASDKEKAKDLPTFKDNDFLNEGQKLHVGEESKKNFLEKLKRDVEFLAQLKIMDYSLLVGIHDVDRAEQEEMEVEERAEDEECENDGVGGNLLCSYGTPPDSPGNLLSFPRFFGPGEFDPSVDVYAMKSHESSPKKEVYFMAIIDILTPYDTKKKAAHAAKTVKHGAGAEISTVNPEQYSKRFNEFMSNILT

Sequence of Phosphatidylinositol 5-phosphate 4-kinase type-2 gamma (Q8TBX8 2-421 limits assumed, change not shown): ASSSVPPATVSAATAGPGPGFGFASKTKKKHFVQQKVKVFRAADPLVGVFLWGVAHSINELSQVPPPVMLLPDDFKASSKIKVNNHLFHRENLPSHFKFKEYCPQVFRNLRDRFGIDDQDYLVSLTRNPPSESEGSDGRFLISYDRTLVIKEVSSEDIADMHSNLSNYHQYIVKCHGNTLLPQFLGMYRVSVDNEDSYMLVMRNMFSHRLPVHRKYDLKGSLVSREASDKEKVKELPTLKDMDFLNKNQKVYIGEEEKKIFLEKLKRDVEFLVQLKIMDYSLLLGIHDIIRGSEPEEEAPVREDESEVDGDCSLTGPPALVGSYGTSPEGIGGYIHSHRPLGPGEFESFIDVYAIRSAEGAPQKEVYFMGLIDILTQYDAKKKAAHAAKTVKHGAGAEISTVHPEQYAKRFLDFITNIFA

| pIC50 [1] | Papp A→B [2] [×10⁻⁶ cm/s] | IC50 [3] [µM] | Compound |
| --- | --- | --- | --- |
| 8.1 | 3.15 | – | Cc1ncccc1-c1cc2ncnc(Nc3ccc(N4CCCC4=O)cc3)c2s1 |
| 6.3 | – | – | Cc1ncccc1-c1cc2ncnc(Nc3ccc4ncoc4c3)c2s1 |
| 7.3 | – | – | CSc1ccc(Nc2ncnc3sc(-c4cccnc4C)cc23)cc1 |
| 7 | – | – | Cc1ncccc1-c1cc2c(Nc3ccc(C4CC4)cc3)ncnc2s1 |
| 6.4 | – | – | CCc1ccc(Nc2ncnc3sc(-c4cccnc4C)cc23)cc1 |
| 7.4 | 2.88 | > 10 | Cn1cc(-c2cc3c(Nc4ccc(S(C)(=O)=O)cc4)ncnc3s2)cn1 |
| 7.9 | 2.45 | – | Cc1ccncc1-c1cc2c(Nc3ccc(S(C)(=O)=O)cc3)ncnc2s1 |
| 7.4 | – | – | CSc1ccc(Nc2ncnc3sc(-c4cnoc4)cc23)cc1 |
| 7.7 | 3.7 | – | CSc1ccc(Nc2ncnc3sc(-c4ccncc4C)cc23)cc1 |
| – | 14.2 | – | CS(=O)(=O)c1ccc(Nc2ncnc3scc(Cl)c23)cc1 |
| – | 3.13 | > 10 | Cc1cnccc1-c1cc2c(Nc3ccc(S(C)(=O)=O)cc3)ncnc2s1 |
| 7.7 | 1.33 | > 10 | Cc1ncccc1-c1cc2c(Nc3ccc(S(C)(=O)=O)cc3)ncnc2s1 |
| 7.3 | 9.95 | – | Cc1ncccc1-c1cc2ncnc(Nc3ccc(C4CC4)cc3)c2s1 |
| 7.5 | – | – | CS(=O)(=O)c1ccc(Nc2ncnc3sc(-c4cccnc4)cc23)cc1 |
| 7.5 | – | – | COc1cnccc1-c1cc2c(Nc3ccc(S(C)(=O)=O)cc3)ncnc2s1 |
| 5.7 | – | – | COc1ccc(Nc2ncnc3sc(-c4cccnc4C)cc23)cc1 |
| 5.4 | – | – | Cc1ccc(Nc2ncnc3sc(-c4cccnc4C)cc23)c(C)c1 |
| 8.1 | 12.9 | – | CSc1ccc(Nc2ncnc3cc(-c4cccnc4Cl)sc23)cc1 |
| 5.8 | – | – | Cc1ccc(Nc2ncnc3sc(-c4cccnc4C)cc23)cc1 |
| 5.3 | – | – | Cc1cccc(Nc2ncnc3sc(-c4cccnc4C)cc23)c1 |
| 7.7 | – | – | CSc1ccc(Nc2ncnc3sc(-c4cccnc4Cl)cc23)cc1 |
| 7.6 | – | – | CSc1ccc(Nc2ncnc3sc(-c4c(C)noc4C)cc23)cc1 |
| 5.9 | – | – | Cc1ccc(Nc2ncnc3sc(-c4cccnc4C)cc23)cc1C |
| 7.8 | – | – | CS(=O)(=O)c1ccc(Nc2ncnc3sc(-c4cn[nH]c4)cc23)cc1 |
| 7.9 | 1.33 | – | CS(=O)(=O)c1ccc(Nc2ncnc3cc(-c4cccnc4Cl)sc23)cc1 |
| – | 4.73 | > 10 | CS(=O)(=O)c1ccc(Nc2ncnc3sc(-c4cccnc4Cl)cc23)cc1 |
| 7.2 | – | – | CS(=O)(=O)c1ccc(Nc2ncnc3sc(-c4ccnc(Cl)c4)cc23)cc1 |
| 7.7 | – | – | CS(=O)(=O)c1ccc(Nc2ncnc3sc(-c4ccncc4)cc23)cc1 |
